Our source for the IC50 values is patent publication US20080004271A1, “Inhibitors of TNFalpha, PDE4 and B-RAF, compositions thereof and methods of use therewith” (priority 2006, published 2008).

For one assay, the target named is T1, V600E mutant B-RAF (Homo sapiens, UniProt P15056, V600E).
T1 construct: purchased Upstate
The assay can be described thus: V600E Mutant B-RAF 33P Assay. The class given is biochemical. The procedure:
Substrate (HIS-MEK1 K97M) is prepared by Celgene Corp. as described above.
Test compound is diluted in 100% DMSO (600 μM). […] Substrate mixture is prepared as 7.5 μM HIS-MEK1 K97M in assay buffer. ATP mixture is prepared as 300 μM ATP, 75 mM MgCl2, 0.05 μCi/μl ^33P ATP in assay buffer.
In a 96 well assay plate (Falcon Polylpropylene well U-bottom), the following are added to each well: 2.5 μl of test compound solution (serial dilutions), 20 μl of substrate mixture and 17.5 μl of enzyme mixture. The plate is incubated for at least 15 minutes. 10 μl of ATP mixture is added and the plate is incubated at room temperature for about 60 minutes. 80 μl of 12.5% TCA is added to each well, and the plate is incubated for at least 20 minutes. The contents of the plate is transferred to a glass fiber filter plate (Millipore) using a Packard Harvester (washing 10× with 1×PBS). 50 μl of Scintillation-20 fluid is added to each well. The plate is read using a Packard TopCount.

In the next assay the test system is A375 cells. The assay can be described thus: Alamar Blue Viability Assay. The class given is cell-based. The conditions noted are these: Homo sapiens, A-375, 72 h, 3 days. The procedure:
A375 cells (ATCC # CRL-1619; Passage 4˜15; doubling time is roughly 18 hours) are used. Culture medium is DMEM (high glucose, with L-glutamine)+10% FBS+Pen/Strep. Cells are passed every three days at 1:20.
200 μl of medium only is added into all wells along the edges of a 96-well flat bottom plate and 180 μl of cell suspension (containing 1,000 cells) per well is added into the plate with a Low Evaporation Lid (Costar Cat # 3595). The cells are cultured overnight. Compounds and controls are diluted according to standard compound dilution protocol described below. From 30 mM stock solution, 10 mM, 3 mM, 1 mM, and 0.3 mM solutions in 100% DMSO are prepared using the following serial dilution protocol:
The 30, 10, 3, 1 and 0.3 mM solutions are diluted 1:50 (DMSO:medium) by adding 4 μl of each to 196 μl of culture medium. This yields 600 μM, 200 μM, 60 μM, 20 μM, and 6 μM secondary stock solutions. 4 μl of DMSO are added to 196 μl medium for the DMSO control as well. 20 μl of compound dilutions, including the DMSO control locations (Row G, Columns 2-10 are DMSO control wells), are added in triplicate to the cells in the 96-well plate using a repeat pipettor (see plate layout below). This yields final concentrations of 60 μM, 20 μM, 6 μM, 2 μM, and 0.6 μM containing 0.2% DMSO in each well. The plate is gently tapped to evenly distribute compound within the well. The plate is incubated at 5% CO2 at 37° C. for 3 days.
20 μl of Alamar Blue (Biosource #DAL-1100) is added to each well. The plate is incubated in 5% CO2 incubator for 4 hours. Fluorescence is measured with excitation wavelength at 530 nm and emission wavelength at 590 nm using a Victor 2 multilabel plate reader (Perkin Elmer). Data is saved with plate format as a Text file and entered into ActivityBase (Cell-based SAR; Prolif-Alamar; MTT 5 plates unfixed fit) to calculate the percent of DMSO values for each compound set of triplicate wells and IC50 curves are plotted.

T1 sequence (P15056 whole entry V600E): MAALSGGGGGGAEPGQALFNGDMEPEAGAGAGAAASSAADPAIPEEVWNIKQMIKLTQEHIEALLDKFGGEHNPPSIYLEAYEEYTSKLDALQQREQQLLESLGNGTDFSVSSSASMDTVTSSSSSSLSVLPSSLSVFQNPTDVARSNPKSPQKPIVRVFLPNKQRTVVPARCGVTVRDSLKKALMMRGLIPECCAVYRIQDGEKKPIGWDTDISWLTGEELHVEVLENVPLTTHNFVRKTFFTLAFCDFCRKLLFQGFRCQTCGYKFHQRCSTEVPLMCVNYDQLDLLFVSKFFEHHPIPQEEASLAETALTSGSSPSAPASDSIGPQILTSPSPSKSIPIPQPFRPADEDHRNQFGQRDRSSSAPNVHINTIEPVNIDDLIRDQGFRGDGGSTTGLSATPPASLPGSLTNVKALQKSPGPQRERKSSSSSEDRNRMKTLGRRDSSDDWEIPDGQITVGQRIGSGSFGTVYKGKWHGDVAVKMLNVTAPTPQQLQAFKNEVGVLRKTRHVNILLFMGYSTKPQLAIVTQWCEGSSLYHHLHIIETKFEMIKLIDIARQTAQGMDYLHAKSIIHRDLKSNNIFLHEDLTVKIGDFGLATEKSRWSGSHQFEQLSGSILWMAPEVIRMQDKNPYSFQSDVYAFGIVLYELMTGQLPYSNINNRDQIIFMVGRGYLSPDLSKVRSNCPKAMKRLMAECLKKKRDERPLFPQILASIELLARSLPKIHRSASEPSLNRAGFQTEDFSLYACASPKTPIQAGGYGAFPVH

`NC(=O)c1sc2nc(NC3CC3)nc(-c3ccnc(Cl)c3)c2c1N` [Example 236]: the IC50 is 0.1 to 10 µM on V600E mutant B-RAF and 30 to 60 µM with A375 cells.
For `NC(=O)c1sc2nc(NC3CC3)nc(-c3ccnc(O)c3)c2c1N` [Example 237], the IC50 against V600E mutant B-RAF was 10 to 20 µM; in the assay with A375 cells, over 60 µM.
With `NC(=O)c1sc2nc(NC3CC3)nc(-c3cccc([N+](=O)[O-])c3)c2c1N` [Example 244], the IC50 on V600E mutant B-RAF was 0.1 to 10 µM; in the assay with A375 cells, 30 to 60 µM.
In the assay on A375 cells, `NC(=O)c1sc2nc(NC3CC3)nc(-c3cccc(N)c3)c2c1N` [Example 245] yielded an IC50 of over 60 µM.
Consider `NC(=O)c1sc2nc(NC3CC3)nc(-c3cccc(NC(=O)C(F)(F)F)c3)c2c1N` [Example 246], for which the IC50 was 10 to 20 µM at V600E mutant B-RAF and over 60 µM in the assay on A375 cells.
As to `NC(=O)Cc1nc(-c2ccc(Cl)c(Cl)c2)c2c(N)c(C(N)=O)sc2n1` [Example 254], the IC50 is 0.1 to 10 µM at V600E mutant B-RAF and over 60 µM with A375 cells.
On to `NC(=O)c1sc2nc(CC(=O)O)nc(-c3ccc(Cl)c(Cl)c3)c2c1N` [Example 255], for which the results for the IC50 at V600E mutant B-RAF and with A375 cells were 0.1 to 10 µM and over 60 µM, respectively.
`COc1cc(-c2nc(NC(C)(C)CO)nc3sc(C(N)=O)c(N)c23)cc(Cl)c1Cl` [Example 263] yielded an IC50 in the assay on A375 cells of 10 to 20 µM.
For the molecule `NC(=O)c1sc2ncnc(-c3cc4c(c(OCc5ccccc5)c3)CCO4)c2c1N` [Example 266], the IC50 on V600E mutant B-RAF was over 60 µM; with A375 cells, 10 to 20 µM.
The like results for `NC(=O)c1sc2ncnc(-c3cc(O)c4c(c3)OCC4)c2c1N` [Example 267] were, in that order, 0.1 to 10 µM and 10 to 20 µM.
As for `NC(=O)c1nc(-c2ccc(Cl)c(Cl)c2)c2c(N)c(C(N)=O)sc2n1` [Example 268], the results for the IC50 at V600E mutant B-RAF and in the assay with A375 cells were 0.1 to 10 µM and 30 to 60 µM, respectively.
Turning to `CC(C)[C@@H](CO)Nc1nc(-c2ccc(Cl)c(Cl)c2)c2c(N)c(C(N)=O)sc2n1` [Example 272], the IC50 at V600E mutant B-RAF was in the range of 0.1 to 10 µM; in the assay with A375 cells it was 10 to 20 µM.
As to `COc1cncc(-c2nc(N)nc3sc(C(N)=O)c(N)c23)c1` [Example 277], the IC50 with A375 cells lay in the range of 0.1 to 10 µM.
Take `NC(=O)c1sc2nc(NC3CC3)nc(Nc3ccccc3)c2c1N` [Example 278]: the IC50 on V600E mutant B-RAF is 10 to 20 µM; in the assay with A375 cells, 30 to 60 µM.
For the molecule `NC(=O)c1sc2nc(NC3CC3)nc(Nc3ccc(Cl)c(Cl)c3)c2c1N` [Example 279], the IC50 against V600E mutant B-RAF was in the range of 30 to 60 µM; in the assay with A375 cells, 0.1 to 10 µM.
`NC(=O)c1sc2nc(NC3(CO)CCC3)nc(-c3ccc(Cl)c(Cl)c3)c2c1N` [Example 281]: the IC50 at V600E mutant B-RAF was in the range of 0.1 to 10 µM; in the assay with A375 cells, 10 to 20 µM.
Molecule `COc1ccc(NC(=O)Nc2cccc(-c3ncnc4sc(C(N)=O)c(N)c34)c2)cc1` [Example 283] registered an IC50 with A375 cells of 10 to 20 µM.
Take `COc1ccnc(-c2nc(NC(C)(C)CO)nc3sc(C(N)=O)c(N)c23)c1` [Example 284]: the values for the IC50 at V600E mutant B-RAF and in the assay on A375 cells were 30 to 60 µM and 10 to 20 µM, respectively.
In the case of `CCOc1nc(-c2cccc(C(F)F)c2)c2c(N)c(C(N)=O)sc2n1` [Example 285], the IC50 against V600E mutant B-RAF is 0.1 to 10 µM; with A375 cells, 10 to 20 µM.
For `CC(C)(CO)Nc1nc(-c2cccc(C(F)F)c2)c2c(N)c(C(N)=O)sc2n1` [Example 286], the IC50 on V600E mutant B-RAF fell in the range of 0.1 to 10 µM; in the assay on A375 cells it was 10 to 20 µM.
In the case of `NC(=O)c1sc2ncnc(-c3cccc(Nc4nc5cc(C(F)(F)F)ccc5[nH]4)c3)c2c1N` [Example 287], the IC50 with A375 cells was in the range of 0.1 to 10 µM.
Regarding `NC(=O)c1sc2ncnc(-c3cccc(Nc4nc5cc(C(F)(F)F)ccc5o4)c3)c2c1N` [Example 288], the IC50 against V600E mutant B-RAF is 0.1 to 10 µM; in the assay on A375 cells, 10 to 20 µM.
The molecule `NC(=O)c1sc2ncnc(-c3cccc([N+](=O)[O-])c3)c2c1N` [Example 289] had an IC50 in the assay on A375 cells of 10 to 20 µM.
For `NC(=O)c1sc2ncnc(-c3cccc(N)c3)c2c1N` [Example 290], in the assay with A375 cells, the IC50 lay within 10 to 20 µM.
As for `NC(=O)c1sc2ncnc(-c3cccc(NC(=O)Nc4ccccn4)c3)c2c1N` [Example 294], in the assay with A375 cells, the IC50 is 10 to 20 µM.

For orientation: IC50 means the point on the concentration scale where inhibition reaches its midpoint. A higher IC50 goes with weaker potency.
